Measured values from a melting point compilation (Tetko et al.; mined from patent text by program, amines drawn as free bases though some values may be those of a salt).

Compound	melting point
N#Cc1cnc2cc(-c3csc(CN4CCOCC4)c3)ccc2c1Nc1ccc(Oc2ccccc2)cc1	221 to 223 °C
Cc1cc(C)cc(C=CC#N)c1	67 to 68 °C
NOCc1cnn(C(c2ccccc2)(c2ccccc2)c2ccccc2)c1	133 to 136 °C
C#CCCCCNC(=O)c1cnc(OCC(O)CNC(C)(C)C)s1 (stereo not drawn)	140 to 148 °C
c1ccc2c(NC3CCCCC3)nnc(Cc3ccncc3)c2c1	137 to 139 °C
O=CCNc1[nH]c(-c2ccc(F)cc2)nc1-c1ccccc1	256 to 258 °C
O=c1oc2ccc(Cl)cc2c(Cl)c1Cl	133 to 135 °C
Cc1ccc(N)cc1Nc1ncc(-c2ccc(C#N)cc2)o1	144 °C
NC(=O)c1c(-c2cccc(F)c2)c(Br)n2c1CNCC2	216 to 218 °C
CC(C)(C)OC(=O)NC[C@H]1CC[C@H](C#N)CC1	100 to 101 °C
CC(=O)C1CCC2C3CCC4CC(O)C(N5CCOC(c6ccccc6)(c6ccccc6)C5)CC4(C)C3C(=O)CC12C (stereo not drawn)	248 to 250 °C
COc1cc(-c2nc(N)nn2CCC2CCCCC2)c(OC)cc1C	136 to 137 °C
Cc1ccc(C(O)CCN(C)C)s1 (stereo not drawn)	66.5 to 68 °C
Cn1cc2c(n1)SSSSS2	94 to 102 °C
CCOCC1COc2c(cc(N)cc2C(F)(F)F)O1 (stereo not drawn)	96 to 98 °C
CC(=O)OC1CCC2C3CCC4C(=O)CCCC4(C)C3CCC12C (stereo not drawn)	160 to 163 °C
O=C(Nc1ccccc1CS(=O)c1nccn1-c1ccccn1)c1ccccc1 (stereo not drawn)	109 to 111 °C
CC12CCC(C(=O)O)=CC1=CCC1C2CCC2(C)C(C(=O)NC3C4CC5CC(C4)CC3C5)CCC12 (stereo not drawn)	214 to 216 °C
OCCCCC(F)(F)C(F)(F)CCO	52 to 55 °C
N#CC(C#N)CC(CC(F)(F)C(F)(F)C(F)(F)C(F)F)SC(F)(F)F (stereo not drawn)	72 to 74 °C
O=S(=O)(CCCCl)c1ccccc1	55 to 58 °C

Compound	melting point
COc1cc2c(cc1OC)C1(C3OCCO3)CNCC2O1 (stereo not drawn)	107 to 109 °C
CNC1([C@@H]2CCN(c3ccc4c(=O)c(C(=O)O)cn5c4c3OC[C@@H]5C)C2)CC1	227 to 229 °C
Cn1c(C(F)(F)F)cc(=O)n(-c2ccc3snc(C4OCCCS4)c3c2)c1=O (stereo not drawn)	125 to 130 °C
Cc1cc(C#N)cc(C(=O)Nc2ccnc(Cl)c2)n1	238 °C
CNC(=O)[C@H]1CN(c2ccc3c(c2)sc(=O)n3C)C(=O)O1	264 to 267 °C
CCCC(CCC)Nc1cc(C)nc(Cl)c1N	139 to 140 °C
CO[C@]1(c2cnc(SC)s2)CCO[C@@H]1C (racemic)	51 to 52 °C
CC(C)COC(=O)CCC12CCC(=O)N1C(=O)CC2	102 to 104 °C
OC(c1cnc2c(cnn2-c2ccccc2)c1)(c1c[nH]c2ncccc12)C(F)(F)F (stereo not drawn)	137 to 141 °C
O=C(NC1CCNCC1)N(CCCN1CCC(Cc2ccccc2)CC1)c1ccccc1	85 to 87 °C
COc1cc2c(cc1OC)C1(CCC2=O)CCC(=O)N(C)C1=O (stereo not drawn)	168 to 170 °C
Nc1n[nH]c2cccc(C(F)(F)F)c12	129 to 130 °C
FC(F)(F)c1ccc2c(c1)NC(=S)c1ccccc1S2	232 to 233 °C
CCn1cc(C(=O)O)c(=O)c2cc(F)c(N3CCNC(c4cc(C)sc4C)C3)cc21 (stereo not drawn)	248 to 250 °C
CC(=O)N1N=C(c2ccc(N)cc2)c2cc3c(cc2C=C1C)OCO3	175 to 180 °C
O=C(O)/C(=C/c1cnc(-c2ccccc2)n1Cc1ccccc1Cl)Cc1ccccc1	211 to 213 °C
Cc1conc1-c1nnc2c3ccccc3c(OCc3ccccn3)nn12	164 °C
Cc1nc2c(n1C1CC1)CCCC2=O	132 °C
O=C1NCCC[C@@H]1NS(=O)(=O)c1c(F)cccc1F	152 to 153 °C
N#Cc1cc(Cn2cncn2)cc(-c2ccc(OS(N)(=O)=O)c(Cl)c2)c1	163 to 164 °C
COc1cc(OC)cc(-c2cc(NC(=O)CC(=O)C(F)(F)F)[nH]n2)c1	119 to 121 °C

Compound	melting point
Cc1c(C)c2c(c3c1NCC3)CC(C)(CI)O2 (stereo not drawn)	97 to 98 °C
Cc1ccc(-c2nc(Cl)nc(Cl)n2)c(C)c1	136 to 137 °C
CC1C(=O)C(c2ccc(S(C)(=O)=O)cc2)=C1c1ccccc1 (stereo not drawn)	121 to 122 °C
CN1C(=O)CCC2(C)C3CCC4(C)C(OCC(N)=O)CCC4C3CCC12 (stereo not drawn)	222 to 225 °C
Nc1ccc(NC(=O)c2ccc(C(=O)Nc3ccc(N)cc3Cl)cc2)c(Cl)c1	261 °C
N#Cc1cccc2c1CCC2O (stereo not drawn)	98 °C
O=C(Nc1cnc2cnc(-c3ccc(O)cc3)nc2c1)c1ccncc1	230 to 232 °C
CC(=O)OC1CSC(Sc2cc(C(F)(F)F)cc(C(F)(F)F)c2)C(OC(C)=O)C1OC(C)=O (stereo not drawn)	201 °C
COc1c(N2CCC(N)C2)c(F)c(N)c2c(=O)c(C(=O)O)cn(C3CC3)c12 (stereo not drawn)	254 to 257 °C
N#Cc1ccncc1OC1SCC(O)C(O)C1O (stereo not drawn)	157 °C
Clc1nccc(-n2ccc3c(SCc4ccccc4)cccc32)n1	159 to 161 °C
CCCCCCCCCCCCCCCCCCOC1OCC(CNC(=O)C(F)(F)F)O1 (stereo not drawn)	80 °C
CCN(CC)CCCNC(=O)Cn1ncc(-c2ccc([N+](=O)[O-])cc2)c1-c1ccccc1	100 to 101 °C
CCn1ncc2c3onc(-c4ccccc4)c3cnc21	151 to 153 °C
Cc1noc(NS(=O)(=O)c2ccsc2COc2ccc3c(c2Cl)OCO3)c1Br	152 to 154 °C
CN(C)CCN1CCC(O)(c2ccccc2)C(C(O)c2ccccc2)C1 (stereo not drawn)	157 to 158 °C
CCCCC(CC)COC(=O)C(C#N)=Cc1ccc(-c2nc3ccccc3o2)cc1 (stereo not drawn)	84 to 85 °C
O=C1C2Cc3c(ncn3Cc3ccccc3)CN2C(=S)N1c1ccccc1 (stereo not drawn)	224 to 226 °C
O=[N+]([O-])c1ccc2c(Br)cc3nc(O)c(O)nc3c2c1	> 300 °C
COc1ccc(Cc2nc3c(c4c2[nH]c2ccccc24)C(O)CC(C)(C)C3)cc1 (stereo not drawn)	146 °C
CCCCCCCCCCCc1cc(O)c(CCCCCC)c(=O)o1	83 to 84 °C

Further lines, results first:

melting point	Compound
131 to 132 °C	CC(=O)N(C)c1cc(C(=O)C=CN(C)C)ccc1F
170 °C	Cc1cccc(NC(=O)NC(C(=O)O)C(C)C)c1 (racemic)
> 285 °C	CCNC(=O)Cn1c(=O)c(=O)[nH]c2ccc3ccc(-n4c(C)ccc4C)cc3c21
98 to 100 °C	Cc1cc(=O)n(-c2cccc(Cl)c2)n1C
178 to 179 °C	Cc1oc(-c2ccccc2)nc1CCOc1ccc(CC(C)(C(=O)O)c2ccccc2)cc1 (stereo not drawn)
79.6 to 80.5 °C	CC(=O)Oc1cn(C(C)=O)c2ccccc12
269 to 270 °C	COc1ccc(-c2cc(=O)c3cccnc3o2)cc1
202 to 203 °C	Cc1ccc(Oc2cccc(C3C4=C(CC(C)(C)CC4=O)NC4=C3C(=O)CC(C)(C)C4)c2)cc1
156 °C	C[Si](C)(C)OC(C(N)=O)(C(N)=O)c1ccc(Cl)c(Cl)c1
108 °C	CON=C(c1ccc(OC(C)(C)C(=O)O)c(C)c1)c1cccs1
128 to 130 °C	O=C(Cc1ccccc1)NC1CN(OC(=O)c2ccccc2)C1=O (stereo not drawn)
168 to 170 °C	CC(=O)Nc1ccc(F)cc1C(=O)O
139 to 141 °C	Cc1cccc(Cl)c1Nc1ccccc1CC(N)=O
93.5 to 95.5 °C	CCCCCCOc1ccc2[nH]c(SC(C)(CO)c3ccccc3)cc2c1 (stereo not drawn)
158 to 160 °C	CCOC(=O)NNc1ccc(-c2ccccc2)nn1
120 °C	O=C(O)c1[nH]cc(OCc2ccccc2)c(=O)c1Br
173 to 174 °C	COc1ccc(C(=O)N2CCc3cc(O)c(OC)cc3C2)cc1
52 to 54 °C	CCOC(=O)CN1C(=O)[C@H](NC(=O)[C@H](COCc2ccccc2)NC(=O)OC(C)(C)C)CSc2ccccc21
202 to 208 °C	Cc1ccccc1-c1cc(C(=O)NC(=N)N)c2ccc(O)cc2n1
155 to 160 °C	Cc1ccccc1-c1cnc(Nc2ccccn2)s1

melting point	Compound
130 to 131 °C	CCCOc1ccccc1-c1nc2n(C(C)(C)C)[nH]cc-2c(=O)n1
133 to 134 °C	COc1ccc(CNC(=O)C(=O)NCCc2ccccn2)c(C)c1
146 °C	COC1=CC(OC)(OC)C(I)C=C1C(=O)OCC(=O)c1ccccc1 (stereo not drawn)
142 °C	COc1cc(-c2nc3ccc(OCCCN(C)C)cc3n2Cc2ccccc2C(F)(F)F)cc(OC)c1OC
152 to 153 °C	CCOC(=O)C1=C(Nc2ccc(C(=O)OCC)cc2)OCC1=O
159 °C	CCOP(=O)(COc1ccc2c(c1)[nH]c1ccccc12)OCC
162 °C	COc1ccc(S(=O)(=O)Nc2c(C#N)cc(C)cc2C(=O)O)cc1
130 to 133 °C	COc1ccc(Cc2oc3cccc(O)c3c2C)cc1
185 to 186 °C	Cc1ccc(C(=O)NCCN(C)C)cc1-n1c(C)cc(OCc2ccccc2CNC(=O)Nc2cc(C(C)(C)C)nn2-c2ccc(Cl)c(O)c2)c(Cl)c1=O
198 to 200 °C	CC(C)(C)OC(=O)C(CCC(N)=O)N1Cc2c(O)cccc2C1=O (stereo not drawn)
87 to 88 °C	CCc1ccc2scc(CCNC(C)=O)c2c1
145 to 147 °C	COC(=O)c1ccc(S(C)(=O)=O)c(-c2ccon2)c1Cl
140 to 142 °C	CCCc1nn(C)c2c(OCCOc3ccc(CC(OCC)C(=O)O)cc3)nc(CC)nc12 (stereo not drawn)
258 to 260 °C	CSc1nc(-c2ccccc2)n(-c2ccc(C)cc2)c(=O)c1C#N
46 to 47 °C	Cc1cc(C)c2c(c1)OCC2c1ccc(C(C)C)cc1 (stereo not drawn)
211 to 213 °C	CC(C)(C)OC(=O)CN1CC(c2cccc3ccccc23)SCC(N2C(=O)c3ccccc3C2=O)C1=O (stereo not drawn)
75 to 77 °C	CCC(=NOC)c1cccc(Oc2nc(OC)cc(OC)n2)c1C(=O)OC
165 to 166 °C	Cc1ccc(Oc2ccccc2C(=O)O)c(NS(=O)(=O)c2cc(C(F)(F)F)cc(C(F)(F)F)c2)c1
161 to 163 °C	COc1ccc(NC(=O)c2ccccc2-c2cccc(F)c2)cc1
179 to 181 °C	N#Cc1cc(C(=O)NNC(=O)c2occ(-c3ccncc3)c2-c2ccccc2)ccc1O
